According to US8232284B2, “Heteroaryloxy quinazoline derivative” (MSD K. K., priority 2007, dated 2012):

What was measured:
[1] = test system: male beagles; assay: Pharmacological Test Example 2: drug efficacy test in dogs (plasma glucose level AUC); assay type: in vivo; settings: for Percentage reduction (%) in plasma glucose level AUC: male beagles fasted overnight, oral 1 mg/kg in 0.5% methyl cellulose, compared to control group up to 4 hours after administration
Procedure: (§1) From the cephalic vein of male beagles fasted overnight (10.4-13.7 kg body weight), blood was collected prior to administration, followed by oral administration of the test drug suspended in a 0.5% methyl cellulose solution (1 mg/kg in both of the compounds of Example A and Example 18), while a 0.5% methyl cellulose solution was orally administered to the control group. The blood was collected every 0.5 or 1 hour after the administration of the test drug. Plasma was separated from the obtained blood to determine a plasma glucose level using Determina-GL-E (Kyowa Medics). Percentage reductions in plasma glucose level AUC compared to the control group up to 4 hours after the administration were described below.

[2] = test system: male beagles; assay: Pharmacological Test Example 3: drug efficacy test in dogs (plasma glucose level AUC); assay type: in vivo; settings: male beagles fasted overnight; oral 1 mg/kg in 0.5% methyl cellulose; compared to control group up to 4 hours after administration
Procedure: as §1, with “(8.5-13.7” for “(10.4-13.7”, “Examples 30” for “the compounds of Example A”, “31),” for “Example 18),”, “Medics).” for “Medics). Percentage reductions in plasma glucose level AUC compared to the control group up to 4 hours after the administration were described below.”
Percentage reductions in plasma glucose level AUC compared to the control group up to 4 hours after the administration were described below.

[3] = target: T1, recombinant human liver GK (Homo sapiens, UniProt P35557); assay: Glucokinase-activating effect (Thio-NADH coupled assay with G6PDH, 2.5 mM glucose); assay type: biochemical; settings: comparative test in vitro, similar to pharmacological experiment 1; read-out: GK activity EC50
T1 construct: made in house; host or cells: E. coli
T1 sequence (P35557 1-466 isoform P35557-2): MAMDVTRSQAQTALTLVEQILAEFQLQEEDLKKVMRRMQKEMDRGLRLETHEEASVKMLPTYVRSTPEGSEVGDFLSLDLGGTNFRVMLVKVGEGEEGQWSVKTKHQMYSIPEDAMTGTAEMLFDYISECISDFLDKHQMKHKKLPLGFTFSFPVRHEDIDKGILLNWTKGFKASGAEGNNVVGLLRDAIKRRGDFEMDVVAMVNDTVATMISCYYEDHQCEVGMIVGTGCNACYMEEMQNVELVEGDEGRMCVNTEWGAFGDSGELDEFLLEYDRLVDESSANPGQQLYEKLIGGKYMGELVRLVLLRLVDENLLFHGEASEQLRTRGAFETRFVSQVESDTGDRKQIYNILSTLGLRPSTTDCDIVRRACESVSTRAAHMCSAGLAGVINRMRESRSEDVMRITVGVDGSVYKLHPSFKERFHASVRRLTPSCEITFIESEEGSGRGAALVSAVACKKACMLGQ
Excerpt: The excellent glucokinase-activating effect of the compounds of the formula (I) may be determined by a method described in literature (for example, Diabetes, Vol. 45, pp. 1671-1677, 1996), or in accordance with it.
The glucokinase activity may be determined not by directly measuring glucose-6-phosphate but by measuring the level of Thio-NADH, which is produced when a reporter enzyme, glucose-6-phosphate dehydrogenase produces phosphogluconolactone from glucose-6-phosphate, and based on the level, the degree of glucokinase activation by the compound tested may be determined
In this assay, used was a recombinant human liver GK, which was expressed by E. coli as a FLAG fusion protein therein and was purified by ANTIFLAG M2 AFFINITY GEL (Sigma).
Using a flat-bottomed 96-well plate, the assay was carried out at 30° C. 69 μl of an assay buffer (25 mM Hepes Buffer/pH=7.2, 2 mM MgCl2, 1 mM ATP, 0.5 mM TNAD, 1 mM dithiothreitol) was put into the plate, and 1 μl of a DMSO solution of the compound or DMSO alone as a control was added thereto. Next, 20 μl of an enzyme mixture (FLAG-GK, 20 U/ml G6PDH) cooled in ice was added to it, and 10 μl of a substrate, 25 mM glucose was added to it, and the reaction was initiated (final glucose concentration=2.5 mM).
After the start of the reaction, the increase in the absorbance at 405 nm was measured for 12 minutes at intervals of 30 seconds, and the increase for the first 5 minutes was used for assessing the compound tested. FLAG-GK was added so that the absorbance increase after 5 minutes in the presence of 1% DMSO could be from 0.04 to 0.06.
The OD level of the DMSO control was set as 100%; and the OD level of the test compound at different concentrations was determined. From the OD level at each concentration, Emax (%) and EC50 (μM) were computed and used as the index of the GK-activating potency of the compound.
The comparative test was conducted to compare the compound of example 18, 31 and 32 in this invention with the compound (A) in the patent document 1. The test method in vitro was similar to pharmacological experiment 1 (glucokinase-activating effect).

In the case of `Cc1cnc(Nc2ncnc3ccc(Oc4ncccc4Cl)cc23)cn1` [Compound A], the “drug efficacy in the dogs” value ([1]; in vivo tests in dogs, summary statement) is reported as “no drug efficacy”, the “Percentage reduction (%) in plasma glucose level AUC” value (shortened to “Percentage reduction (%)”) [1] is reported as −1% and the “Percentage reduction (%)” value [2] is reported as −1%.

With `CCNCCOc1cnc(Oc2ccc3ncnc(Nc4ccn(C)n4)c3c2)c(Cl)c1.Cl` [Example 18, 6-({3-chloro-5-[2-(ethylamino)ethoxy]pyridin-2-yl}oxy)-N-(1-methyl-1H-pyrazol-3-yl)quinazoline-4-amine hydrochloride] the EC50 [3] was 30 nM and the “Percentage reduction (%)” value [1] was 26%.

With `Cc1cnc(Nc2ncnc3ccc(Oc4ccc(OCCN(C)C)cn4)cc23)cn1` [Example 31, 6-({5-[2-(dimethylamino)ethoxy]pyridin-2-yl}oxy)-N-(5-methylpyrazin-2-yl)quinazoline-4-amine] the EC50 [3] was 440 nM and the “Percentage reduction (%)” value [2] was 7.9%.

With `CNCCOc1cnc(Oc2ccc3ncnc(Nc4cnc(C)cn4)c3c2)c(Cl)c1.Cl` [Example 32, 6-({3-chloro-5-[2-(methylamino)ethoxy]pyridin-2-yl}oxy)-N-(5-methylpyrazin-2-yl)quinazoline-4-amine hydrochloride] the EC50 [3] was 40 nM and the “Percentage reduction (%)” value [2] was 17.5%.
